Measured values as given in ChEMBL document CHEMBL5465560, “Selectivity Literature for EUbOPEN Chemogenomic Library” (2024).

Experiments:
[1] = target: STE20-like serine/threonine-protein kinase (Homo sapiens, UniProt Q9H2G2); experiment: Selectivity interaction (KinomeScan (DiscoverX)) EUB0000045b SLK
[2] = target: RAC-alpha serine/threonine-protein kinase (Homo sapiens, UniProt P31749); experiment: Selectivity interaction (Kinase panel (33PanQinase(R) Activity Assay)) EUB0000877a AKT1
[3] = target: Myosin light chain kinase, smooth muscle (Homo sapiens, UniProt Q15746); experiment: Selectivity interaction (ActivX KiNativ screen (ex vivo kinase selectivity in human PBMCs)) EUB0001619a MYLK; assay type: cell-based; details: PBMC, at 1 µM
Sequence of Myosin light chain kinase, smooth muscle (Q15746 whole entry): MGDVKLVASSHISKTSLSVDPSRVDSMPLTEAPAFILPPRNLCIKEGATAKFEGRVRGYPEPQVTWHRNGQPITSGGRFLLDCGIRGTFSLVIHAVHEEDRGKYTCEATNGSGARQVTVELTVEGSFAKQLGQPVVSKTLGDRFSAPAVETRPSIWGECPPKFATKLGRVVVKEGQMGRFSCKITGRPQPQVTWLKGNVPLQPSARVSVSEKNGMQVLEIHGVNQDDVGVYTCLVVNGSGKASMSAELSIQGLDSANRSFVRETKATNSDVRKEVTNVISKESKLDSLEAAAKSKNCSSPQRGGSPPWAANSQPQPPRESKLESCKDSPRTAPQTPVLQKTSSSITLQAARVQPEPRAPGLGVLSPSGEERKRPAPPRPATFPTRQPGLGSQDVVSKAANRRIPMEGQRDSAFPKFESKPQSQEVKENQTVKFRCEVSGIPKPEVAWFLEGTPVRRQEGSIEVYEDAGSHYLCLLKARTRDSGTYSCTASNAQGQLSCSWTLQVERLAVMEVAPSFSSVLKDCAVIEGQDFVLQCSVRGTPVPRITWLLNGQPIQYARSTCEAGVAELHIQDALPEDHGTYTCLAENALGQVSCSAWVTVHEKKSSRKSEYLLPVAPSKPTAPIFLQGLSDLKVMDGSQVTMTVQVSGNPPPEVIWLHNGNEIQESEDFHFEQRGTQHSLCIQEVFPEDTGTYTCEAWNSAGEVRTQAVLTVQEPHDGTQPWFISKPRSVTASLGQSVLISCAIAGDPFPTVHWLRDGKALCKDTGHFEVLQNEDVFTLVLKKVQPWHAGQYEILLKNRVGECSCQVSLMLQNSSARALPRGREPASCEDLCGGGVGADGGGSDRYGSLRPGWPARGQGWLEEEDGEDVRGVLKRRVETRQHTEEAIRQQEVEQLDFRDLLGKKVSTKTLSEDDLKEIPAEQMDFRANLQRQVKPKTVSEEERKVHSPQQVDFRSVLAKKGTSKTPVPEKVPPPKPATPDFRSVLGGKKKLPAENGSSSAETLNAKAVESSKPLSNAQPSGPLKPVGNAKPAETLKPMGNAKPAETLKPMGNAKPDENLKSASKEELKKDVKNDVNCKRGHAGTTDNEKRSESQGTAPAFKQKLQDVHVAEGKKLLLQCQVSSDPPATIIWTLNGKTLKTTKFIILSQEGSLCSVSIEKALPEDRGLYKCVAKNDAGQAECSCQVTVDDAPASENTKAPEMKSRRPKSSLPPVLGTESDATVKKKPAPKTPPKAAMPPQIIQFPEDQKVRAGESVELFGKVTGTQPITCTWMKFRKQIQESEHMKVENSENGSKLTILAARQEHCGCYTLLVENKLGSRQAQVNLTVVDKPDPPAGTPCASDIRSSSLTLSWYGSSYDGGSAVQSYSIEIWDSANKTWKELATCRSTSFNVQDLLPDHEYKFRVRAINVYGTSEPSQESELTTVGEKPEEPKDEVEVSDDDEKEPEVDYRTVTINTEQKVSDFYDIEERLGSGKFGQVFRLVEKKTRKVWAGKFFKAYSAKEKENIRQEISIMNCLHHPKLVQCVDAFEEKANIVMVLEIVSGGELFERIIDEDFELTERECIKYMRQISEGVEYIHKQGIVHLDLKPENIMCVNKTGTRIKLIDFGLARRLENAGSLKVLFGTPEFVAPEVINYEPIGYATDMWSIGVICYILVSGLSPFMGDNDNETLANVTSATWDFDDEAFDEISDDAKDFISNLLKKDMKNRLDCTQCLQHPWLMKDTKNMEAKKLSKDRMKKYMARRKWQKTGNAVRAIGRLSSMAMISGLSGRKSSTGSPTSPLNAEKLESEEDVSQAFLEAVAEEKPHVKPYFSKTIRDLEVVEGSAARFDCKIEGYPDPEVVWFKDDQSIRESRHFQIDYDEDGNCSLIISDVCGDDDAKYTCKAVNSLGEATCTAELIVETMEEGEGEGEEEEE

[4] = target: T1, Cytoplasmic tyrosine-protein kinase BMX (Homo sapiens) (UniProt P51813); experiment: Selectivity interaction (SelectScreen profiling (Invitrogen)) EUB0000607a BMX; details: at 2 µM
T1 sequence (whole entry): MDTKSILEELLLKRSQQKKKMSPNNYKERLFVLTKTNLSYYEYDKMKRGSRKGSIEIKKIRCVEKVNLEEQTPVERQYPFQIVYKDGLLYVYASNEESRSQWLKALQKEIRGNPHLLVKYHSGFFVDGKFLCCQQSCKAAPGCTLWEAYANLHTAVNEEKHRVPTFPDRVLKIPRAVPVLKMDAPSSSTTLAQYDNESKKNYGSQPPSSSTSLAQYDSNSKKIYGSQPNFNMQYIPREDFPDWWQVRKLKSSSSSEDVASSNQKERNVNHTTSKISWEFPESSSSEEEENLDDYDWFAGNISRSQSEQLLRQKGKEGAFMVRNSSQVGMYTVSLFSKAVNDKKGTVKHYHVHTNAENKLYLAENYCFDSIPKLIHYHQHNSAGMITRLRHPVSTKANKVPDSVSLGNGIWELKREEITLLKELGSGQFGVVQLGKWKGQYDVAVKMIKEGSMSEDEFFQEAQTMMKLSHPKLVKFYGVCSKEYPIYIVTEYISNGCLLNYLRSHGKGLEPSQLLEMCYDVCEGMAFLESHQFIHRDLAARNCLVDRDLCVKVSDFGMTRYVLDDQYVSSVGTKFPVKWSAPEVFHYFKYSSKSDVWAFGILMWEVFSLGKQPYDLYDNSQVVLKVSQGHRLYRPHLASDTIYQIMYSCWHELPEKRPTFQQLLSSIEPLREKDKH

[5] = target: Myosin-IIIa (Homo sapiens) (UniProt Q8NEV4); experiment: Selectivity interaction (KinomeScan (DiscoverX)) EUB0000655a MYO3A; details: at 10 µM
Sequence of Myosin-IIIa (Homo sapiens) (Q8NEV4 whole entry, the tested form may be a part): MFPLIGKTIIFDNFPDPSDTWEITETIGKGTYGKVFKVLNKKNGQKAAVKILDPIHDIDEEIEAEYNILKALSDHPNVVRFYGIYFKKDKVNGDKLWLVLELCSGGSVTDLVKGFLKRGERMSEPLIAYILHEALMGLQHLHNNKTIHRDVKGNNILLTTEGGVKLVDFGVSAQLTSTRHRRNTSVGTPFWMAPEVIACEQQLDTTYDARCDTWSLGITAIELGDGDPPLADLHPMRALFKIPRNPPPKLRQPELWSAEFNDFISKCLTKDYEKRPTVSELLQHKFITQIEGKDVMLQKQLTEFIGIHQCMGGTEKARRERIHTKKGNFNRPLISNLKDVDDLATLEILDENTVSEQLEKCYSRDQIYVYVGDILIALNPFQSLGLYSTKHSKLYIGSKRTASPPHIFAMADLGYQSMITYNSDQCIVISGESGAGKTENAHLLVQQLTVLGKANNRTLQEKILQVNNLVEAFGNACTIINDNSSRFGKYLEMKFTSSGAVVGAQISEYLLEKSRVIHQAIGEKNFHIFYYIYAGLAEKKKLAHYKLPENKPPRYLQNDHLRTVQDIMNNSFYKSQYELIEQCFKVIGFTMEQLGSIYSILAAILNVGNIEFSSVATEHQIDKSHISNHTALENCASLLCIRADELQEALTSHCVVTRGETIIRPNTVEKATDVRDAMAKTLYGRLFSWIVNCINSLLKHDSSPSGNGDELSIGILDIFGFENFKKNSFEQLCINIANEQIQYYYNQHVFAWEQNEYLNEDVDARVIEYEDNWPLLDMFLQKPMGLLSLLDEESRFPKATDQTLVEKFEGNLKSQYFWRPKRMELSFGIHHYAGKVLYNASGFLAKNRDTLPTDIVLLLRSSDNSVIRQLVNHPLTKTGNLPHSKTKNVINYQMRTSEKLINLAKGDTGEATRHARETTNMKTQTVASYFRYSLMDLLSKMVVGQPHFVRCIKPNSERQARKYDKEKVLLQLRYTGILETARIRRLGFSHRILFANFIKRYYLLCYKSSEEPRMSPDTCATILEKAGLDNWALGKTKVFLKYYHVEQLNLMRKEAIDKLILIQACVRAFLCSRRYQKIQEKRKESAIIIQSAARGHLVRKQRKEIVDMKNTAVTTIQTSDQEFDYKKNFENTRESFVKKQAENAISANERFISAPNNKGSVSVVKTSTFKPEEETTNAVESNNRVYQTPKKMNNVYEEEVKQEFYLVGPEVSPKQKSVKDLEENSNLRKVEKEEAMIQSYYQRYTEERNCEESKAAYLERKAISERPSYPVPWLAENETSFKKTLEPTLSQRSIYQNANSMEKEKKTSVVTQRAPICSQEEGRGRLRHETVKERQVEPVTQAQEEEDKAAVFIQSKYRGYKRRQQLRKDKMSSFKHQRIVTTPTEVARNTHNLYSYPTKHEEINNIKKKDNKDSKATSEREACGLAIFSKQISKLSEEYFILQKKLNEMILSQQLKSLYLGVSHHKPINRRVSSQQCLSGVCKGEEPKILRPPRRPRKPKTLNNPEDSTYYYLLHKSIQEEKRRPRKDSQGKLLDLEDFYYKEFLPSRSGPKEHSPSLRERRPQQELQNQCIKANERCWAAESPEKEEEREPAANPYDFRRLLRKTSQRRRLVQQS

[6] = target: T2, Phosphatidylinositol 3-kinase C2 domain-containing subunit gamma (Homo sapiens) (UniProt O75747); experiment: Selectivity interaction (KinomeScan (DiscoverX)) EUB0000655a PIK3C2G; details: at 10 µM
T2 sequence (whole entry): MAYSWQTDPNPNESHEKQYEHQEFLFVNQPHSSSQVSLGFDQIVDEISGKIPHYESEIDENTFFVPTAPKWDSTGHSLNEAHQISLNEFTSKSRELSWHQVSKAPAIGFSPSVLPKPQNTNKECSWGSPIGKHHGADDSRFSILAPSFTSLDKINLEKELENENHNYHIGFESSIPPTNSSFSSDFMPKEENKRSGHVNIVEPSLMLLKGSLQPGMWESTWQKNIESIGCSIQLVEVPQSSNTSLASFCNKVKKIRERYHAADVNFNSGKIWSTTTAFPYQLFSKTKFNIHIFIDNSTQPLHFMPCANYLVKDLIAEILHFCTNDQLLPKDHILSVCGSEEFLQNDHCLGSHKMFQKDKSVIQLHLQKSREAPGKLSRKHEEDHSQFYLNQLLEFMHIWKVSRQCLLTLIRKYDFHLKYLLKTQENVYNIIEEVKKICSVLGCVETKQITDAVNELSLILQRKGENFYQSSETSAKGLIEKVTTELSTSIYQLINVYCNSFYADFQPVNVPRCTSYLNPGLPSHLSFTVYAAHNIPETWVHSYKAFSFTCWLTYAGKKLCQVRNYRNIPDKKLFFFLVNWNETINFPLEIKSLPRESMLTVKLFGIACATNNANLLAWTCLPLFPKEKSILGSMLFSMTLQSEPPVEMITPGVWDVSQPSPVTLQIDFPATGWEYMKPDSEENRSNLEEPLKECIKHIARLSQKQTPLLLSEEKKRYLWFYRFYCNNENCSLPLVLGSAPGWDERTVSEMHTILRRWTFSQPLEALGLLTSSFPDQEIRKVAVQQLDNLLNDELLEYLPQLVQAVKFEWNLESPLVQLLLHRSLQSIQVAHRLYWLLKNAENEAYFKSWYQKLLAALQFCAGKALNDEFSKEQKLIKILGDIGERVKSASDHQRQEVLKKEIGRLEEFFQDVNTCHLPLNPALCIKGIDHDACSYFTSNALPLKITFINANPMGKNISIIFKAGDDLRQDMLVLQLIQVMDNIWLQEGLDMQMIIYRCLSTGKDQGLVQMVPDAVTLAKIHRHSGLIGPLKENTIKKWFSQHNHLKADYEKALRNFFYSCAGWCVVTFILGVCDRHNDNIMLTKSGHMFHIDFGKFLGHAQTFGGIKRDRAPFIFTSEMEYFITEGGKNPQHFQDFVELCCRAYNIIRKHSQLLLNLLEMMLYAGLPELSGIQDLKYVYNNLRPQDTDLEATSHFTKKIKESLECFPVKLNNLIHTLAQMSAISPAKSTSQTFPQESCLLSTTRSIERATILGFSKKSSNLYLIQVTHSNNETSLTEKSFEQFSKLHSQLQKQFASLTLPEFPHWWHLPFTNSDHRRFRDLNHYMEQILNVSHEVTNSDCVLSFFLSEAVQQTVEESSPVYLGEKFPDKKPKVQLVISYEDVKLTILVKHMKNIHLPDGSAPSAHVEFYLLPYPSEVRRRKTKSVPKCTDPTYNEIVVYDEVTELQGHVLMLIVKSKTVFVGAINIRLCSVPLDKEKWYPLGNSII

Sequence of STE20-like serine/threonine-protein kinase (Q9H2G2 whole entry, looked up): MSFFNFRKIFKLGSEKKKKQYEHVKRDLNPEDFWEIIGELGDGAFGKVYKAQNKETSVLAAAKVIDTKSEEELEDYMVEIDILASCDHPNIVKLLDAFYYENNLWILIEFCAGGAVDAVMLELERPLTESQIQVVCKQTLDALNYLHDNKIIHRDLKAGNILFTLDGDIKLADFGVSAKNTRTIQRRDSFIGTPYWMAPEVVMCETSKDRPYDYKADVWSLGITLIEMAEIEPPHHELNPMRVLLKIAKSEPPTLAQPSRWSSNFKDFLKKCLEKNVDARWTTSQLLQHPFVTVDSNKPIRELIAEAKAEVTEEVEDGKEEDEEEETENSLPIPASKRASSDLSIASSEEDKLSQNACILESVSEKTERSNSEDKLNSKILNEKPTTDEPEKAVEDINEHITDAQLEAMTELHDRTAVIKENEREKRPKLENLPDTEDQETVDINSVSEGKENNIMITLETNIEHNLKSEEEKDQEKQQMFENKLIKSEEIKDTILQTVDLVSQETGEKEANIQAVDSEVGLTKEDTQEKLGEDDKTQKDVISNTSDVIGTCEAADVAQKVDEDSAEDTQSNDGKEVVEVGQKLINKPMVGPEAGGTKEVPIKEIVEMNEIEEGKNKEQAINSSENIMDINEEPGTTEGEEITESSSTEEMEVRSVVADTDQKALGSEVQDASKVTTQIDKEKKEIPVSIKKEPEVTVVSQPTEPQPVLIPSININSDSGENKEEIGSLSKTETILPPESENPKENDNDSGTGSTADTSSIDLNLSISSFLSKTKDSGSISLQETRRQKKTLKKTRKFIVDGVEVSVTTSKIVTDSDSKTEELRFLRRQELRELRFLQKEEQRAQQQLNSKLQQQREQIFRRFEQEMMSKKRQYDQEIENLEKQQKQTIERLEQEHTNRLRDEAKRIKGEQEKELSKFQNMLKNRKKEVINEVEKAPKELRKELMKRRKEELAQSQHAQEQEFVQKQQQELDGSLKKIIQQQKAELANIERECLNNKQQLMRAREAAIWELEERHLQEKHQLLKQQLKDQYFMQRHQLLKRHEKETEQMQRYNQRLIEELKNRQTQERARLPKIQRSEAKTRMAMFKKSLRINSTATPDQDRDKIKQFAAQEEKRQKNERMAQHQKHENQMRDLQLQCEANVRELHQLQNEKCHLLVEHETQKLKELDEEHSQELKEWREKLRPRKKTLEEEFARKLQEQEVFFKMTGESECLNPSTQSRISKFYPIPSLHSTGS

With `C=CC(=O)Nc1cc(-n2c(=O)ccc3cnc4ccc(-c5ccc(NS(C)(=O)=O)cc5)cc4c32)ccc1C` the % of control ([1]; at 1 µM) was 59% and the % of control ([1]; at 10 µM) was 100%.
For `CCC(=O)N1CC[C@H](Nc2ncnc3c2CN(c2cnc(OC)c(C(F)(F)F)c2)CC3)C1` [LENIOLISIB], the IC50 [2] was over 10 µM.
Work on `N#Cc1cccc(-c2c[nH]c3ncnc(N4CCOCC4)c23)c1` yielded a % of inhibition [3] of 16%.
`CNC(=O)Nc1ccc(-c2nc(N3CC4CCC(C3)O4)c3cnn(C4CCC5(CC4)OCCO5)c3n2)cc1` showed a % of inhibition [4] of 10%.
For `CN(C)CCOc1ccc(-c2nc(-c3ccncc3)c(-c3ccc4c(c3)CC/C4=N\O)[nH]2)cc1`, the % of control [5] was 94% and the % of control [6] was 55%.
